Drawing on US10100058B2, “Fused heterocyclic compounds as CaM kinase inhibitors” (Gilead Sciences, Inc., priority 2016, dated 2018), this text covers IC50 for 36 compounds.

Each structure is given as a SMILES string.

This test concerns the target recombinant CaMKIIδ (Homo sapiens (Human), UniProt Q13557). In words: CaMKIIδ biochemical assay (HTRF). Conditions: 10 pM CaMKIIδ, 110 nM calmodulin, 12 μM ATP, 1 hour; read-out: CAMKIID-HTRF-384V2 (IC50 - nM). How it is done: CaMKIIδ Biochemical Assay
The biochemical activity of recombinant CaMKIIδ was measured by monitoring the phosphorylation of a target peptide using Homogenous Time Resolved Fluorescence (HTRF) technology from CisBio Bioassays.
Take `O=C(NC[C@@H]1CCCN1)c1ccnc(-c2cnn3ccc(-c4cccs4)nc23)c1` [Example 34, (S)—N-(pyrrolidin-2-ylmethyl)-2-(5-(thiophen-2-yl)pyrazolo[1,5-a]pyrimidin-3-yl)isonicotinamide]: the IC50 worked out at 12.4 nM.
In the case of `CN1CCC[C@H]1CNC(=O)c1ccnc(-c2cnn3ccc(-c4cccs4)nc23)c1` [Example 35, (S)—N-((1-methylpyrrolidin-2-yl)methyl)-2-(5-(thiophen-2-yl)pyrazolo[1,5-a]pyrimidin-3-yl)isonicotinamide] it was 95.5 nM; in that of `CCN(CC)C(C)CNC(=O)c1ccnc(-c2cnn3ccc(-c4ccccc4)nc23)c1` (stereo not drawn) [Example 37, N-(2-(diethylamino)propyl)-2-(5-phenylpyrazolo[1,5-a]pyrimidin-3-yl)isonicotinamide], 7.03 nM.
In the case of `CCN(CC)[C@@H](C)CNC(=O)c1ccnc(-c2cnn3ccc(-c4ccccc4)nc23)c1` [Example 38, (S)—N-(2-(diethylamino)propyl)-2-(5-phenylpyrazolo[1,5-a]pyrimidin-3-yl)isonicotinamide] it was 2.08 nM; in that of `CN(C)CCNC(=O)c1ccnc(-c2cnn3ccc(-c4ccccc4)nc23)c1` [Example 39, N-(2-(dimethylamino)ethyl)-2-(5-phenylpyrazolo[1,5-a]pyrimidin-3-yl)isonicotinamide], 137 nM.
In the case of `CC1(C)CNC1CNC(=O)c1ccnc(-c2cnn3ccc(-c4ccccc4)nc23)c1` (stereo not drawn) [Example 41, N-((3,3-dimethylazetidin-2-yl)methyl)-2-(5-phenylpyrazolo[1,5-a]pyrimidin-3-yl)isonicotinamide], the IC50 was determined as 119 nM.
Then `CCN[C@@H](C)CNC(=O)c1ccnc(-c2cnn3ccc(-c4ccccc4)nc23)c1` [Example 42, (S)—N-(2-(ethylamino)propyl)-2-(5-phenylpyrazolo[1,5-a]pyrimidin-3-yl)isonicotinamide], with 14.4 nM; and `CC[C@]1(CNC(=O)c2ccnc(-c3cnn4ccc(-c5ccccc5)nc34)c2)CCCN1` [Example 43, (R)—N-((2-ethylpyrrolidin-2-yl)methyl)-2-(5-phenylpyrazolo[1,5-a]pyrimidin-3-yl)isonicotinamide], with 27.7 nM; and `C[C@H](N)CNC(=O)c1ccnc(-c2cnn3ccc(-c4ccccc4)nc23)c1` [Example 44, (S)—N-(2-aminopropyl)-2-(5-phenylpyrazolo[1,5-a]pyrimidin-3-yl)isonicotinamide], with 43.1 nM.
For the compound `CCC(C)N[C@@H](C)CNC(=O)c1ccnc(-c2cnn3ccc(-c4ccccc4)nc23)c1` (stereo partly drawn) [Example 45, N-((2S)-2-(sec-butylamino)propyl)-2-(5-phenylpyrazolo[1,5-a]pyrimidin-3-yl)isonicotinamide], the IC50 came to 77.4 nM.
As to `CCC(N)CNC(=O)c1ccnc(-c2cnn3ccc(-c4ccccc4)nc23)c1` (stereo not drawn) [Example 46, N-(2-aminobutyl)-2-(5-phenylpyrazolo[1,5-a]pyrimidin-3-yl)isonicotinamide], the IC50 was 23.7 nM.
In the case of `CC(C)C(N)CNC(=O)c1ccnc(-c2cnn3ccc(-c4ccccc4)nc23)c1` (stereo not drawn) [Example 47, N-(2-amino-3-methylbutyl)-2-(5-phenylpyrazolo[1,5-a]pyrimidin-3-yl)isonicotinamide] it was 35.3 nM; in that of `CCCC(N)CNC(=O)c1ccnc(-c2cnn3ccc(-c4ccccc4)nc23)c1` (stereo not drawn) [Example 48, N-(2-aminopentyl)-2-(5-phenylpyrazolo[1,5-a]pyrimidin-3-yl)isonicotinamide], 25.7 nM; in that of `C[C@@H](CNC(=O)c1ccnc(-c2cnn3ccc(-c4ccccc4)nc23)c1)NCc1ncccn1` [Example 49, (S)-2-(5-phenylpyrazolo[1,5-a]pyrimidin-3-yl)-N-(2-((pyrimidin-2-ylmethyl)amino)propyl) isonicotinamide], 391 nM.
Consider `CCC(CNC(=O)c1ccnc(-c2cnn3ccc(-c4ccccc4)nc23)c1)NCC1CC1` (stereo not drawn) [Example 50, N-(2-((cyclopropylmethyl)amino)butyl)-2-(5-phenylpyrazolo[1,5-a]pyrimidin-3-yl)isonicotinamide], for which the IC50 amounted to 8.52 nM.
In the case of `CCCNC(CC)CNC(=O)c1ccnc(-c2cnn3ccc(-c4ccccc4)nc23)c1` (stereo not drawn) [Example 51, 2-(5-phenylpyrazolo[1,5-a]pyrimidin-3-yl)-N-(2-(propylamino)butyl)isonicotinamide] it was 9.61 nM; in that of `CC(C)C(CNC(=O)c1ccnc(-c2cnn3ccc(-c4ccccc4)nc23)c1)NCC1CC1` (stereo not drawn) [Example 52, N-(2-((cyclopropylmethyl)amino)-3-methylbutyl)-2-(5-phenylpyrazolo[1,5-a]pyrimidin-3-yl)isonicotinamide], 4.98 nM; in that of `CCCNC(CNC(=O)c1ccnc(-c2cnn3ccc(-c4ccccc4)nc23)c1)C(C)C` (stereo not drawn) [Example 53, N-(3-methyl-2-(propylamino)butyl)-2-(5-phenylpyrazolo[1,5-a]pyrimidin-3-yl)isonicotinamide], 4.79 nM.
Then `CCNC(CC)CNC(=O)c1ccnc(-c2cnn3ccc(-c4ccccc4)nc23)c1` (stereo not drawn) [Example 54, N-(2-(ethylamino)butyl)-2-(5-phenylpyrazolo[1,5-a]pyrimidin-3-yl)isonicotinamide], with 13.4 nM; and `CCNC(CNC(=O)c1ccnc(-c2cnn3ccc(-c4ccccc4)nc23)c1)C(C)C` (stereo not drawn) [Example 55, N-(2-(ethylamino)-3-methylbutyl)-2-(5-phenylpyrazolo[1,5-a]pyrimidin-3-yl)isonicotinamide], with 12 nM; and `N[C@@H](CO)CNC(=O)c1ccnc(-c2cnn3ccc(-c4ccccc4)nc23)c1` [Example 57, (R)—N-(2-amino-3-hydroxypropyl)-2-(5-phenylpyrazolo[1,5-a]pyrimidin-3-yl)isonicotinamide], with 26.5 nM.
In the case of `CCN[C@@H](CO)CNC(=O)c1ccnc(-c2cnn3ccc(-c4ccccc4)nc23)c1` [Example 59, (R)—N-(2-(ethylamino)-3-hydroxypropyl)-2-(5-phenylpyrazolo[1,5-a]pyrimidin-3-yl)isonicotinamide] it was 5.34 nM; in that of `CCCC(CNC(=O)c1ccnc(-c2cnn3ccc(-c4ccccc4)nc23)c1)N(CC)CC` (stereo not drawn) [Example 60, N-(2-(diethylamino)pentyl)-2-(5-phenylpyrazolo[1,5-a]pyrimidin-3-yl)isonicotinamide], 2.35 nM; in that of `CCN(CC)C(CNC(=O)c1ccnc(-c2cnn3ccc(-c4ccccc4)nc23)c1)C(C)C` (stereo not drawn) [Example 61, N-(2-(diethylamino)-3-methylbutyl)-2-(5-phenylpyrazolo[1,5-a]pyrimidin-3-yl)isonicotinamide], 3.6 nM.
On to `CC(CN)NC(=O)c1ccnc(-c2cnn3ccc(-c4ccccc4)nc23)c1` (stereo not drawn) [Example 62, N-(1-aminopropan-2-yl)-2-(5-phenylpyrazolo[1,5-a]pyrimidin-3-yl)isonicotinamide], for which the 50% inhibitory concentration (IC50) came to 216 nM.
Take `CCN(CCN)C(=O)c1ccnc(-c2cnn3ccc(-c4ccccc4)nc23)c1` [Example 65, N-(2-aminoethyl)-N-ethyl-2-(5-phenylpyrazolo[1,5-a]pyrimidin-3-yl)isonicotinamide]: the IC50 was found to be 12.6 nM.
Then `N[C@H](CNC(=O)c1ccnc(-c2cnn3ccc(-c4ccccc4)nc23)c1)COc1ncccn1` [Example 66, (R)—N-(2-amino-3-(pyrimidin-2-yloxy)propyl)-2-(5-phenylpyrazolo[1,5-a]pyrimidin-3-yl)isonicotinamide], with 205 nM; and `CCNC(C)(C)CNC(=O)c1ccnc(-c2cnn3ccc(-c4ccccc4)nc23)c1` [Example 67, N-(2-(ethylamino)-2-methylpropyl)-2-(5-phenylpyrazolo[1,5-a]pyrimidin-3-yl)isonicotinamide], with 102 nM; and `O=C(c1ccnc(-c2cnn3ccc(-c4ccccc4)nc23)c1)N1CCCCC12CCCNC2` (stereo not drawn) [Example 68, (2-(5-phenylpyrazolo[1,5-a]pyrimidin-3-yl)pyridin-4-yl)(1,8-diazaspiro[5.5]undecan-1-yl)methanone], with 26.3 nM.
Then `CCN[C@H](CNC(=O)c1ccnc(-c2cnn3ccc(-c4ccccc4)nc23)c1)COc1ncccn1` [Example 69, (R)—N-(2-(ethylamino)-3-(pyrimidin-2-yloxy)propyl)-2-(5-phenylpyrazolo[1,5-a]pyrimidin-3-yl)isonicotinamide], with 91.1 nM; and `CCN(CC)[C@H](CNC(=O)c1ccnc(-c2cnn3ccc(-c4ccccc4)nc23)c1)COc1ncccn1` [Example 70, (R)—N-(2-(diethylamino)-3-(pyrimidin-2-yloxy)propyl)-2-(5-phenylpyrazolo[1,5-a]pyrimidin-3-yl)isonicotinamide], with 30.1 nM; and `CC(C)NC(CNC(=O)c1ccnc(-c2cnn3ccc(-c4ccccc4)nc23)c1)C(C)C` (stereo not drawn) [Example 73, N-(2-(isopropylamino)-3-methylbutyl)-2-(5-phenylpyrazolo[1,5-a]pyrimidin-3-yl)isonicotinamide], with 31.9 nM.
Then `CCN[C@H](C)CNC(=O)c1ccnc(-c2cnn3ccc(-c4ccccc4)nc23)c1` [Example 74, (R)—N-(2-(ethylamino)propyl)-2-(5-phenylpyrazolo[1,5-a]pyrimidin-3-yl)isonicotinamide], with 34.2 nM.
As for `CC[C@@]1(CNC(=O)c2ccnc(-c3cnn4ccc(-c5ccccc5)nc34)c2)CCCN1` [Example 75, (S)—N-((2-ethylpyrrolidin-2-yl)methyl)-2-(5-phenylpyrazolo[1,5-a]pyrimidin-3-yl)isonicotinamide], the concentration for half-maximal inhibition (IC50) worked out at 39.3 nM.
In the case of `O=C(c1ccnc(-c2cnn3ccc(-c4cccs4)nc23)c1)N1CC2CCC(C1)NC2` (stereo not drawn) [Example 76] it was 3.47 nM.
Consider `O=C(c1ccnc(-c2cnn3ccc(-c4cccs4)nc23)c1)N1CC2CCC[C@@H](C1)NC2` [Example 77, ((1S)-3,9-diazabicyclo[3.3.2]decan-3-yl)(2-(5-(thiophen-2-yl)pyrazolo[1,5-a]pyrimidin-3-yl)pyridin-4-yl)methanone], for which the IC50 worked out at 2.7 nM.

What is called IC50 is the concentration needed to halve the response being measured.
